Test results as given in patent publication US20030152599A1, “Composition for external use” (Shiseido Co., Ltd., priority 1999, published 2003).

Legend:
skin = experiment: Elasticity of the skin (Cutometer SEM474, Ur/Uf); format: in vivo, human (middle-aged subjects); conditions: 1% aqueous solution, inside of the forearm, three times per day for four days; Ur/Uf at 300 hPa
Description: (§1) The effect of 2-amino-1,3-propanediol and 2-amino-1,3-propanediol hydrochloride on mitigation of decrease in turnover rate of the keratinous layer induced by aging was investigated in four middle-aged subjects. The turnover rate, water content of the keratinous layer, and elasticity of the skin were evaluated. 1% Aqueous solutions of 2-amino-1,3-propanediol and its hydrochloride were employed as the representative compositions of the present invention. A 1% aqueous solution of glycolic acid—which is one type of AHA—was employed as a comparative composition, and water (purified water) was employed as a reference.
(§2) A 1% phosphor solution (1 mL) in ethanol was added to an outer syringe (length: about 2 cm) of a 10-mL disposable injector, to bring the solution into contact with the skin for one minute (four portions on the inside of the forearm). From the next day, each sample including water was applied to the phosphor-contacted portions. Application was performed three times per day and continued for four consecutive days.
Elasticity of the skin was measured by use of Cutometer SEM474 (product of Courage+Khazaka). The elasticity was obtained from extension (Uf) and retraction (Ur) of the skin when a negative pressure of 300 hPa was repeatedly applied to the skin by use of a probe having a diameter of 2 mm. The ratio (Ur/Uf) was employed as an index of elasticity of the skin. The higher the ratio, the higher the elasticity of the skin.
(§3) The turnover rate, water content of keratinous layer and elasticity of the skin in case of 2-amino-2-methyl-1,3-propanediol and its hydrochloride were also investigated.

keratinous layer [1] = experiment: Turnover rate of the keratinous layer (decrease in fluorescence from the skin surface); format: in vivo, human (middle-aged subjects); conditions: 1% aqueous solution, inside of the forearm, three times per day for four days, measured on the fifth day
Description: as §1, §2
On the fifth day after the test was initiated, intensity of fluorescence from the skin surface was measured by use of a fluorescence-detector designed for this particular use. Decrease in fluorescence was employed as an index of the turnover rate of the keratinous layer. The larger the decrease in fluorescence, the greater the turnover rate.
as §3

keratinous layer [2] = experiment: Water content of the keratinous layer (electrical conductivity, Skicon-200); format: in vivo, human (middle-aged subjects); conditions: 1% aqueous solution, inside of the forearm, three times per day for four days
Description: as §1, §2
Water content of the keratinous layer was measured by use of an apparatus for measuring electrical conductivity (Skicon-200, product of IBS). The conductivity was employed as an index of water content. Thus, the higher the water content, the higher the electrical conductivity.
as §3

desmoglein = experiment: Evaluation for promotion of decomposition of desmoglein (keratinous layer sheet, anti-desmoglein immunoblot); format: biochemical; conditions: applied to both sides of keratinous layer sheet, 37° C., humidity 75%, one week; versus glycolic acid positive control
Description: To both sides of a sheet (1.5±0.2 mg) of the keratinous layer was applied 2-amino-1,3-propanediol, 2-amino-1,3-propanediol hydrochloride, or glycolic acid (5 μL for each side). Glycolic acid, which is one of AHA's, was used as a positive control. The sheet was sandwiched by stainless steel mesh sheets and allowed to stand at 37° C. with a humidity of 75% for one week. Subsequently, the sheet was transferred into a microtube, and an extracting liquid (100 μL) was added to the microtube. The mixture was maintained at 37° C. overnight to extract protein from the mixture. The extract was subjected to electrophoresis by use of […], and the gel was transferred to a PVDF membrane. An anti-desmoglein antibody and an alkaline-phosphatase-labeled anti-IgG sequentially reacted with the […], and the resultant gel was colored with alkaline phosphatase. The image of bands formed on the membrane was captured by an image-scanner, and was analyzed, to obtain the amount of desmoglein. The test was performed twice, and an average value of the amount was calculated. The average values of samples were compared.
The effect of 2-amino-2-methyl-1,3-propanediol and its hydrochloride was investigated in accordance with the same method.

SMILES | elasticity of the skin (skin) | mitigation of decrease in turnover rate of the keratinous layer induced by aging (keratinous layer [1]) | water content of the keratinous layer (keratinous layer [2]) | effect of promoting decomposition of desmoglein (desmoglein)
Cl.NC(CO)CO [2-amino-1,3-propanediol hydrochloride] | improve | mitigate decrease in turnover rate induced by aging | improve water content of the keratinous layer | stronger effect of promoting decomposition of desmoglein than does glycolic acid
CC(N)(CO)CO.Cl [2-amino-2-methyl-1,3-propanediol hydrochloride] | more strongly than does glycolic acid | more strongly than does glycolic acid | more strongly than does glycolic acid | stronger effect of promoting decomposition of desmoglein than does glycolic acid
CC(N)(CO)CO [2-amino-2-methyl-1,3-propanediol] | more strongly than does glycolic acid | more strongly than does glycolic acid | more strongly than does glycolic acid | stronger effect of promoting decomposition of desmoglein than does glycolic acid
NC(CO)CO [2-amino-1,3-propanediol] | improve | mitigate decrease in turnover rate induced by aging | improve water content of the keratinous layer | stronger effect of promoting decomposition of desmoglein than does glycolic acid
